From article PMC10829512, “Transport of metformin metabolites by guanidinium exporters of the small multidrug resistance family” (The Journal of General Physiology, 2024)

Assays:
[1] = molecular target: Gdx-pPro (Citrobacter freundii, UniProt O69279); conditions: 2 mM substrate
[2] = tested on: Gdx-pAmi; experiment: SSM electrophysiology of Gdx-pAmi proteoliposomes; type: biochemical, Aminobacter sp. MET; conditions: 2 mM substrate
Protocol: (§1) Gdx-Clo ([Kermani et al., 2018]), Gdx-Eco ([Kermani et al., 2018]), EmrE ([Kermani et al., 2022]), and Gdx-pAmi ([Martinez-Vaz et al., 2022]) construct design and purification have been described previously. […] Proteins were overexpressed in C41(DE3). Expression was induced by the addition of 0.2 mM IPTG for 3 h. Cells were lysed and extracted with 2% n-decyl-β-D-maltoside (DM) for 2 h. After pelleting insoluble cell debris, proteins were purified using cobalt affinity resin. Wash buffer contained 25 mM Tris, pH 8.5, 150 mM NaCl, and 5 mM DM. For Gdx-pAmi, NaCl concentration was increased to 500 mM NaCl. The affinity column was washed with wash buffer, then wash buffer with 10 mM imidazole, prior to elution with wash buffer with 400 mM imidazole. For Gdx-Clo and Gdx-Eco, histidine tags were cleaved with LysC (200 ng/mg of protein; 2 h at room temperature; New England Biolabs), and for all others, histidine tags were cleaved with thrombin (1 U/mg of protein, overnight at room temperature; MilliporeSigma). Proteins were further purified using a gel filtration Superdex200 column (Cytiva) equilibrated with 100 mM NaCl, 10 mM N-2-hydroxyethylpiperazine-N′-2-ethanesulfonic acid (HEPES), pH 7.5, and 5 mM DM. Purified proteins were stored at 4°C for up to 5 days before detergent binding assays. To prepare proteoliposomes for electrophysiology assays, purified protein was mixed with E. coli polar lipid extract (10 mg/ml; Avanti Polar Lipids) solubilized with 35 mM 3-[(3-cholamidopropyl)dimethylammonio]-1-propanesulfonate (CHAPS) at a protein to lipid ratio of 40 μg SMR transporter: mg lipid (1:370 protein:lipid molar ratio) prior to detergent removal by dialysis. For preparations that included Fluc-Bpe, liposomes were reconstituted with a molar ratio of 0.3 Fluc-Bpe:1 SMRGdx: 5920 lipid (1 μg Fluc-Bpe and ∼2.5 μg SMRGdx per mg lipid). For liposome transport assays, proteoliposomes were prepared similarly, except that a 2:1 mixture of 1-palmitoyl, 2-oleoylphosphatidylethanolamine (POPE) and 1-palmitoyl, 2-oleoylphosphatidylglycerol (POPG) (10 mg/ml; Avanti Polar Lipids) was used with 0.2 μg protein/mg lipid. Proteoliposomes were stored at −80°C until use.
(§2) SSM experiments were performed using SURFE^2R N1 instrument (Nanion Technologies). Sensors were prepared with a 1,2-diphytanoyl-sn-glycero-3-phosphocholine (DPhPC) lipid monolayer according to published protocols ([Bazzone et al., 2017]). Each sensor’s capacitance and conductance were verified before use (<80 nF capacitance, <50 nS conductance) using Nanion software protocols. Proteoliposome stock was diluted 1:25 in assay buffer (100 mM KCl, 100 mM KPO4, pH 7.5) prior to adsorption to the DPhPC monolayer. For substrate screening experiments, reference substrate samples (Gdm^+ for SMRGdx, and TPA^+ for SMRQac) were checked periodically to test for the stability of the sensor; if the current amplitude of the reference compound differed by >10% on one sensor, it indicated the desorption of liposomes, and the sensor was not used for further experiments. For every SSM electrophysiology experiment, we used the same general solution exchange protocol: after 2 s perfusion with a non-activating solution, we perfused substrate-containing buffer for 2 s and then returned to the equilibrium condition with a 4 s perfusion of non-activating buffer. For experiments with the S104C/A70C crosslinked variant, reducing conditions were established by the addition of 2.5 mM tris(2-carboxyethyl)phosphine (TCEP) to the activating and non-activating buffers.
(§3) We screened a series of metformin metabolites for transport using SSM electrophysiology (Fig. 2, A and B).

[3] = molecular target: T1, Gdx-Clo (Clostridiales bacterium oral taxon 876, UniProt U2EQ00); experiment: SSM electrophysiology of Gdx-Clo proteoliposomes; type: biochemical, Clostridales oral taxon 876; conditions: 2 mM substrate
T1 sequence (U2EQ00 1-105): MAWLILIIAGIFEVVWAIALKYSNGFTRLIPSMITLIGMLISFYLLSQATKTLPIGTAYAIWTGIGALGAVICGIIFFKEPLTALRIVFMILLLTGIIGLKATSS
Protocol: as §1, §2, §3

[4] = molecular target: Gdx-Eco (Escherichia coli, UniProt P69937); experiment: SSM electrophysiology of Gdx-Eco proteoliposomes; type: biochemical; conditions: 2 mM substrate
Protocol: as §1, §2, §3

[5] = tested on: N=C(N)N; experiment: purified protein, by the assay type; conditions: other: Gdx-pPro, pH 7.5, mean ± SEM

Chain of Gdx-Eco (P69937 whole entry): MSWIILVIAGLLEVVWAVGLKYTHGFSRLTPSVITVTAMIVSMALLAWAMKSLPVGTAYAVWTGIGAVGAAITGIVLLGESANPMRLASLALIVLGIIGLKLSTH
Chain of Gdx-pPro (O69279 2-105): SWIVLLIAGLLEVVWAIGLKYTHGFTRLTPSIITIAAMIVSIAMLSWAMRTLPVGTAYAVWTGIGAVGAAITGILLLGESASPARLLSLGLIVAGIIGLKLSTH

| Compound | Transport currents in substrate screen [1] | Transport currents in substrate screen [2] | Transport currents in substrate screen [3] | Transport currents in substrate screen [4] | Km [5] [µM] |
| --- | --- | --- | --- | --- | --- |
| CN(C)C(=N)N=C(N)N [Metformin, metformin] | currents barely above the detectable limit | currents barely above the detectable limit | currents barely above the detectable limit | currents barely above the detectable limit | – |
| Gdx-pPro (Citrobacter freundii) | – | – | – | – | 2900 ± 500 |
| CNC(=N)NC(=N)N [methylbiguanide] | transported | transported | – | transported | – |
| CCCCNC(=N)NC(=N)N [buformin] | transported | transported | – | transported | – |
